Values after ≈ are worked out from the molar mass of the structure shown.
Legend:
Assay in all cases: MIC/MLC broth dilution assay against fish pathogens
Assay type in all cases: cell-based
Streptococcus agalactiae = conditions: (TSAY/TSBY)/28° C./48 h; for MIC: Streptococcus agalactiae, read-out: Minimum Inhibitory Concentration
Streptococcus iniae = conditions: (TSAY/TSBY)/28° C./48 h; for MIC: Streptococcus iniae, read-out: Minimum Inhibitory Concentration
Tenacibaculum maritimum = conditions: (MA/MB)/15° C./8 days
Piscirickettsia salmonis = conditions: L15/15° C./21 days, read-out: Minimum Inhibitory Concentration
[1] = system: Renibacterium salmoninarum; conditions: KDM-2/15° C./14 days, read-out: Minimum Inhibitory Concentration
Flavobacterium columnare = conditions: TYES/20° C./2 days, read-out: Minimum Inhibitory Concentration
Aeromonas salmonicida = conditions: (TSA/TSB)/20° C./24 h, read-out: Minimum Inhibitory Concentration
Vibrio parahaemolyticus = conditions: (TSA2/TSB2)/37° C./24 h, read-out: Minimum Inhibitory Concentration

Row | SMILES | MIC (Streptococcus agalactiae) [µg/mL] | MIC (Streptococcus iniae) [µg/mL] | Minimum Lethal Concentration (Tenacibaculum maritimum) [µg/mL] | MIC (Tenacibaculum maritimum; Tenacibaculum maritimum, read-out: Minimum Inhibitory Concentration) [µg/mL] | MIC (Piscirickettsia salmonis) [µg/mL] | MIC [1] [µg/mL] | MIC (Flavobacterium columnare) [µg/mL] | MIC (Aeromonas salmonicida) [µg/mL] | Minimum Lethal Concentration (Streptococcus agalactiae) [µg/mL] | Minimum Lethal Concentration (Streptococcus iniae) [µg/mL] | MIC (Vibrio parahaemolyticus) [µg/mL]
1 | CCCCCCc1c(O)cc(CCCCC)cc1O (single isomer, unassigned) [Peak 2] | 6.25 (≈ 23.6 µM) | 0.39 (≈ 1.47 µM) | 200 | 3.13 (≈ 11.8 µM) | 12.5 (≈ 47.3 µM) | 50 (≈ 189 µM) | 0.5 (≈ 1.89 µM) | – | – | – | –
2 | CCCCCCCc1cc(O)c(CCCCCC)c(O)c1 (single isomer, unassigned) [Peak 3] | 6.25 (≈ 21.4 µM) | 0.39 (≈ 1.33 µM) | – | – | 12.5 (≈ 42.7 µM) | 50 (≈ 171 µM) | 0.39 (≈ 1.33 µM) | 100 (≈ 342 µM) | 50 | 25 | 1.56 (≈ 5.33 µM)

From patent publication US12121552B2, “Pseudomonas chlororaphis species and its use in the control of fish diseases caused by bacteria and fungi” (T3 Bioscience, Inc., priority 2022, dated 2024)
